The test system of test [1] is Rattus norvegicus. In words: Narcotic antagonist activity in sc dosed rat assessed as 50% inhibition of phenazocine-induced response. In kind it is functional.
Test [2] relates to Mus musculus. Put plainly: Narcotic agonist activity in sc dosed albino mouse assessed as protection against acetylcholine-induced writhing administered 20 mins prior to acetylcholine challenge measured for 2 mins. The class given is functional.
Test [3] concerns Rattus norvegicus. In words: Narcotic antagonist activity in rat assessed as inhibition of phenazocine-induced response at 80 mg/kg, sc. The class given is functional, organism-based. Set-up: dose 80 mg/kg.
Test [4] deals with Mus musculus. Put plainly: Narcotic agonist activity in albino mouse assessed as protection against acetylcholine-induced writhing at 25 mg/kg, sc administered 20 mins prior to acetylcholine challenge measured for 2 mins relative to control. The conditions noted are these: route subcutaneous. The class given is functional.
For test [5], the system named is Rattus norvegicus. In words: Narcotic antagonist activity in rat assessed as inhibition of phenazocine-induced response at 80 mg/kg, sc relative to nalorphine. In kind it is functional. Set-up: scale not given: the % may be the effect or the level left. The conditions noted are these: route subcutaneous.
Where [6] appears, read: Mus musculus, sc, read-out: ED50.

Activity calls are given as the source filed them. The calls are words filed in the database; no cut-off is given here.

In the case of `CCC(C)(O)CC[C@@H]1[C@H]2Cc3ccc(O)cc3[C@@]1(C)CCN2CC1CC1.CS(=O)(=O)O` (stereo not given in full), the AD50 in test [1] was 0.04 mg/kg. Besides, the ED50 in test [2] (setting [6]) worked out at 7.9 mg/kg. In the case of `CCCCC(C)(O)CC[C@@H]1[C@H]2Cc3ccc(O)cc3[C@@]1(C)CCN2C.CS(=O)(=O)O` (stereo not given in full), in test [2] (setting [6]), the ED50 came to 2.5 mg/kg. Besides, the inhibition result in test [3] was “inactive”. For `CC(C)(C)C(C)(O)CC[C@]1(C)[C@H]2Cc3ccc(O)cc3[C@@]1(C)CCN2CC1CC1.CS(=O)(=O)O` (stereo in doubt; 4q), in test [1], the AD50 was found to be 0.022 mg/kg. Also, in test [4], the Activity is less than 50%. Take `CCCC(C)(O)CC[C@@H]1[C@H]2Cc3ccc(O)cc3[C@@]1(C)CCN2CC1CC1.CS(=O)(=O)O` (stereo not given in full): the AD50 in test [1] turned out to be 0.019 mg/kg. Besides, the ED50 in test [2] (setting [6]) came out at 7.6 mg/kg. For the molecule `C=CCN1CC[C@]23c4c5ccc(O)c4O[C@H]2[C@@H](O)C=C[C@H]3[C@H]1C5` [NALORPHINE], in test [1], the AD50 was 0.1 mg/kg. For `CN1CC[C@]2(C)c3cc(O)ccc3C[C@@H]1[C@@]2(C)CCC(C)(C)O`, the AD50 in test [1] was determined as 2.3 mg/kg. Besides, in test [2] (setting [6]), the ED50 turned out to be 3.8 mg/kg.

For `CCCC(C)(O)CC[C@@H]1[C@H]2Cc3ccc(O)cc3[C@@]1(C)CCN2C.CS(=O)(=O)O` (stereo not given in full), the ED50 in test [2] (setting [6]) turned out to be 2.6 mg/kg. Moreover, in test [3], the inhibition entry is “inactive”.

Turning to `CCCCC(C)(O)CC[C@@H]1[C@H]2Cc3ccc(O)cc3[C@@]1(C)CCN2CC1CC1.CS(=O)(=O)O` (stereo not given in full), in test [1], the AD50 amounted to 0.025 mg/kg. Besides, in test [2] (setting [6]), the ED50 came to 6.5 mg/kg. In the case of `CN1CC[C@]2(C)c3cc(O)ccc3C[C@@H]1[C@H]2CCC(C)(O)C(C)(C)C.CS(=O)(=O)O` (stereo in doubt; 4e), the median effective dose (ED50) in test [2] was greater than 75 mg/kg. The Activity in test [4] is on record as less than 50%. For the molecule `CN1CC[C@]2(C)c3cc(O)ccc3C[C@@H]1[C@@]2(C)CCC(C)(O)C(C)(C)C` (stereo not given in full) [listing 1 of 2 here], the inhibition entry in test [3] was “inactive”. For `CC(C)(C)C(C)(O)CC[C@@H]1[C@H]2Cc3ccc(O)cc3[C@@]1(C)CCN2CC1CC1.CS(=O)(=O)O` (single isomer, unassigned; isomer II), the AD50 in test [1] worked out at 1.1 mg/kg. Moreover, the ED50 in test [2] amounted to 9 mg/kg. `C[C@H]1[C@@H]2Cc3ccc(O)cc3[C@]1(C)CCN2C` [METAZOCINE]: the ED50 in test [2] (setting [6]) came out at 0.54 mg/kg. Also, in test [3], the inhibition entry was “inactive”.

Consider `CN1CC[C@]2(C)c3cc(O)ccc3C[C@@H]1[C@H]2CCC(C)(O)C(C)(C)C` (stereo in doubt; 4f), for which the inhibition result in test [3] was “inactive”. In the case of `CC(C)(C)C(C)(O)CC[C@]1(C)[C@H]2Cc3ccc(O)cc3[C@@]1(C)CCN2CC1CC1.CS(=O)(=O)O` (single isomer, unassigned; isomer II), in test [1], the AD50 is 0.71 mg/kg. For `CN1CC[C@]2(C)c3cc(O)ccc3C[C@@H]1[C@@]2(C)CCC(C)(O)C(C)(C)C` (stereo not given in full) [listing 2 of 2 here], in test [2] (setting [6]), the ED50 is greater than 25 mg/kg. Besides, in test [4], the Activity is recorded as less than 50%. For `CC(C)(O)CC[C@]1(C)[C@H]2Cc3ccc(O)cc3[C@@]1(C)CCN2CC1CC1.Cl`, in test [1], the AD50 was 0.006 mg/kg. Further, the ED50 in test [2] (setting [6]) stood at 4.5 mg/kg. For `CO[C@@]12CC[C@@]3(C[C@@H]1[C@](C)(O)C(C)(C)C)[C@H]1Cc4ccc(O)c5c4[C@@]3(CCN1CC1CC1)[C@H]2O5` [BUPRENORPHINE], the AD50 in test [1] was determined as 0.11 mg/kg. In the case of `CN1CC[C@]2(C)c3cc(O)ccc3C[C@@H]1[C@H]2CCC(C)(C)O`, the ED50 in test [2] (setting [6]) was 8.2 mg/kg. In test [3], the inhibition entry was “inactive”. As for `CC(C)(C)C(C)(O)CC[C@@H]1[C@H]2Cc3ccc(O)cc3[C@@]1(C)CCN2CC1CC1.CS(=O)(=O)O` (single isomer, unassigned; isomer I), the AD50 in test [1] is 0.27 mg/kg. Also, the ED50 in test [2] is greater than 25 mg/kg. Further, in test [4], the Activity was less than 50%.

As to `CN1CC[C@]2(C)c3cc(O)ccc3C[C@@H]1[C@@]2(C)CCC(C)(O)C(C)(C)C.CS(=O)(=O)O` (mixture of isomers), the Activity in test [5] is listed as 30%; in test [4], less than 50%. The AD50 in test [1] was 0.33 mg/kg. The 50% effective dose (ED50) in test [2] (setting [6]) was greater than 25 mg/kg. Consider `C[C@H]1[C@H]2Cc3ccc(O)cc3[C@]1(C)CCN2CC1CC1` [CYCLAZOCINE], for which the AD50 in test [1] amounted to 0.007 mg/kg. For the same molecule, in test [2] (setting [6]), the ED50 stood at 0.15 mg/kg. With `CC(C)(O)CC[C@@H]1[C@H]2Cc3ccc(O)cc3[C@@]1(C)CCN2CC1CC1`, the AD50 in test [1] stood at 0.046 mg/kg. The ED50 in test [2] (setting [6]) was determined as 16 mg/kg. On to `CCC(C)(O)CC[C@@H]1[C@H]2Cc3ccc(O)cc3[C@@]1(C)CCN2C.CS(=O)(=O)O` (stereo not given in full), for which the ED50 in test [2] (setting [6]) came to 3.3 mg/kg. The inhibition result in test [3] was “inactive”. In the case of `CN1CC[C@]2(C)c3cc(O)ccc3C[C@@H]1[C@H]2CCC(C)(O)C(C)(C)C.CS(=O)(=O)O` (stereo in doubt; 4f), in test [2], the ED50 is greater than 25 mg/kg.

For the origin of these results see ChEMBL document CHEMBL3272106, “Synthesis and narcotic agonist-antagonist evaluation of some 2,6-methano-3-benzazocine-11 propanols. Analogues of the ring C bridged oripavine-7-mehtanols” (1977).
